Test results published in patent US10227331B2 (priority 2015, dated 2019).
Counter-ions that a name gives are not always drawn. Like-named read-outs stand apart in the source and are kept apart here.

How the values were obtained:
IMP-1 = IMP-1 (Serratia marcescens, UniProt P52699); assay: biochemical; assay type: biochemical
Method in brief: (§1)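 Class B activity is measured in the presence of compound by fluorescence with CCF2-FA after a 2-hour incubation at 25° C. IC50 is taken from a 4-parameter fit of semi-logarithmic dose-response data.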

NDM-1 = NDM-1 (Klebsiella pneumoniae, UniProt C7C422); assay: biochemical; assay type: biochemical; conditions: CCF2-FA substrate, 2 hours at 25° C; read-out: NDM-1 IC50
Sequence of NDM-1 (C7C422 whole entry, looked up, species assumed): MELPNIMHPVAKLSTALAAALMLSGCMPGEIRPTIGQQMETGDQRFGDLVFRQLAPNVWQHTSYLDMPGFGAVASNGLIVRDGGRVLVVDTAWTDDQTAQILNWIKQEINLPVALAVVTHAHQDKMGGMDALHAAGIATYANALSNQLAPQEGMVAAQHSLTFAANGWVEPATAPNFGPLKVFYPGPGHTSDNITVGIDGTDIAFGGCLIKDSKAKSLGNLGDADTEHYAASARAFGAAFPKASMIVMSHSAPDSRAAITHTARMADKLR
Method in brief: as §1

VIM-1 = VIM-1 (Pseudomonas aeruginosa (strain ATCC 15692 / DSM 22644 / CIP 104116 / JCM 14847 / LMG 12228 / 1C / PRS 101 / PAO1), UniProt A0A0F7KYQ8); assay: biochemical; conditions: CCF2-FA substrate, 2 hours at 25° C
Method in brief: as §1

[1] = system: Escherichia coli expressing NDM-1 (CLB30005, CLB30016); assay type: cell-based; conditions: with imipenem 1 μg/ml; 95% inhibition of bacterial growth
Method in brief: (§2)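 Clinical strains grown overnight on blood agar, then diluted 1:100 in 1.1× CAMHB and exposed to test compound with imipenem at 1 μg/ml. Incubation was 22–24 h at 35° C; growth was read by absorbance to find the compound concentration restoring imipenem susceptibility.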

[2] = system: Klebsiella pneumoniae expressing VIM-1 (IHMA599644); assay type: cell-based; conditions: with imipenem 1 μg/ml; 95% inhibition of bacterial growth
Method in brief: as §2

[3] = system: Serratia marcescens expressing IMP-1 (CL5741); assay type: cell-based; conditions: with imipenem 1 μg/ml; 95% inhibition of bacterial growth
Method in brief: as §2

[4] = system: P. aeruginosa expressing IMP-1, efflux+ (MB9798); assay type: cell-based, Pseudomonas aeruginosa; conditions: for P. aeruginosa expressing IMP-1, efflux+ (MB9798) MITC95: imipenem at 2 μg/mL, in the presence of a class A, C, D serine β-lactamase inhibitor closely related to relebactam; for Efflux ratio: ratio MITC95 PA_9798/MITC95 PA_9799
Source text: (§3) The strain background is Pseudomonas aeruginosa PAO1.

[5] = system: P. aeruginosa expressing IMP-1, efflux− (MB9799); assay: Efflux: concentration of MBL inhibitor which restores susceptibility to imipenem; assay type: cell-based, Pseudomonas aeruginosa; conditions: imipenem at 2 μg/mL, in the presence of a class A, C, D serine β-lactamase inhibitor closely related to relebactam
Source text: as §3

[6] = CCF2-FA substrate, 2 hours at 25° C, read-out: IMP-1 IC50

Sequence of IMP-1 (P52699 whole entry, looked up, species assumed): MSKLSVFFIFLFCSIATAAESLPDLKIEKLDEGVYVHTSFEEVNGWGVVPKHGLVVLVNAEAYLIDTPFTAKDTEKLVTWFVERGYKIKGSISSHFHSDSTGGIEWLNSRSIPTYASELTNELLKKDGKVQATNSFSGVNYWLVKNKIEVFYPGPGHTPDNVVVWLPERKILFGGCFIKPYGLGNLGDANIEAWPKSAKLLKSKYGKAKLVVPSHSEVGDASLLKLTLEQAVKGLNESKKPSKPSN

Compound | IC50 (IMP-1; [6]) | IC50 (NDM-1) | IC50 (VIM-1) | Escherichia coli expressing NDM-1 (CLB30016) MITC95 [1] | Klebsiella pneumoniae expressing VIM-1 (IHMA599644) MITC95 [2] | Serratia marcescens expressing IMP-1 (CL5741) MITC95 [3] | P. aeruginosa expressing IMP-1, efflux+ (MB9798) MITC95 [4] | Efflux ratio [4] | P. aeruginosa expressing IMP-1, efflux− (MB9799) MITC95 [5] | IC50 (IMP-1)
Cc1ccc(-c2ccc(S(=O)(=O)CCN)c(S(N)(=O)=O)c2-c2nn[nH]n2)c2nc(N)sc12 [Example 80, 3-(2-amino-7-methylbenzo[d]thiazol-4-yl)-6-(2-aminoethylsulfonyl)-2-(2H-tetrazol-5-yl)benzenesulfonamide] | 0.085 nM | 0.0508 nM | 0.11 nM | 1.172 µM | 1.563 µM | 0.7813 µM | 0.7813 µM | 1.00 | 0.7813 µM | 
NCCS(=O)(=O)c1ccc(-c2cncc3sc(N)nc23)c(-c2nn[nH]n2)c1S(N)(=O)=O [Example 81, 6-((2-aminoethyl)sulfonyl)-3-(2-aminothiazolo[5,4-c]pyridin-7-yl)-2-(2H-tetrazol-5-yl)benzenesulfonamide hydrochloride] |  | 0.29 nM | 0.356 nM | 0.7813 µM | 3.125 µM | 1.563 µM | 0.7813 µM | 1.00 | 0.7813 µM | 0.266 nM
CC(=O)Nc1nc2c(-c3ccc(S(=O)(=O)CCN)c(S(N)(=O)=O)c3-c3nn[nH]n3)cccc2s1 [Example 82, N-(4-(4-(2-aminoethylsulfonyl)-3-sulfamoyl-2-(2H-tetrazol-5-yl)phenyl)benzo[d]thiazol-2-yl)acetamide] | 0.194 nM | 0.0871 nM | 0.131 nM | 1.563 µM | 3.125 µM | 1.563 µM | 3.125 µM | 2.00 | 1.563 µM | 
CS(=O)(=O)Nc1nc2c(-c3ccc(S(=O)(=O)CCN)c(S(N)(=O)=O)c3-c3nn[nH]n3)cccc2s1 [Example 83, 6-(2-aminoethylsulfonyl)-3-(2-(methylsulfonamido)benzo[d]thiazol-4-yl)-2-(2H-tetrazol-5-yl)benzenesulfonamide] | 0.341 nM | 0.117 nM | 0.263 nM | 6.25 µM | 12.5 µM | 6.25 µM | 12.5 µM | 2.00 | 6.25 µM | 
CCOC(=O)Nc1nc2c(-c3ccc(S(=O)(=O)CCN)c(S(N)(=O)=O)c3-c3nn[nH]n3)cccc2s1 [Example 84, ethyl 4-(4-(2-aminoethylsulfonyl)-3-sulfamoyl-2-(2H-tetrazol-5-yl)phenyl)benzo[d]thiazol-2-ylcarbamate] | 0.145 nM | 0.0781 nM | 0.14 nM | 1.563 µM | 3.125 µM | 1.563 µM | 6.25 µM | 4.00 | 1.563 µM | 
NCCS(=O)(=O)c1ccc(-c2cccc3sc(NC(N)=O)nc23)c(-c2nn[nH]n2)c1S(N)(=O)=O [Example 85, 6-(2-aminoethylsulfonyl)-2-(2H-tetrazol-5-yl)-3-(2-ureidobenzo[d]thiazol-4-yl)benzenesulfonamide] | 0.144 nM | 0.0511 nM | 0.0858 nM | 0.3906 µM | 1.563 µM | 0.7813 µM | 1.563 µM | 2.00 | 0.7813 µM | 
N=C(N)c1nc2c(-c3ccc(S(=O)(=O)CCN)c(S(N)(=O)=O)c3-c3nn[nH]n3)cccc2s1 [Example 86, 4-(4-(2-aminoethylsulfonyl)-3-sulfamoyl-2-(2H-tetrazol-5-yl)phenyl)benzo[d]thiazole-2-carboximidamide] | 0.869 nM | 0.295 nM | 0.141 nM | 0.7813 µM | 0.7813 µM | 0.7813 µM | 1.563 µM | 4.00 | 0.3906 µM | 
